Source: patent US6734139B1, “N-aryl-uracile-based herbicides” (priority 1999, dated 2004)
Where “and” joins values, the source holds several entries; their conditions need not be identical. Identical values can stand only once. Like-named read-outs stand apart in the source and are kept apart here.

Legend:
Format in all cases: in vivo
[1] = test system: maize; assay: Pre-emergence test in maize (crop plant compatibility)
Experimental: (§1) Solvent: 2 to 3 parts by weight of acetone or N,N-dimethyl-formamide
(§2) Emulsifier: 1 part by weight of alkylaryl polyglycol ether
(§3) To produce a suitable preparation of active compound, 1 part by weight of active compound is mixed with the stated amount of solvent, the stated amount of emulsifier is added and the concentrate is diluted with water to the desired concentration. Formulated products are dissolved in water and then diluted with water to the desired concentration.
(§4) The solutions of the other mixing components (active compounds or safeners) are prepared analogously. The separately prepared solutions of the various mixing components are then combined and, if appropriate, additional substances (formulation auxiliaries, additives, etc.) are added and, if appropriate, water is added to prepare the desired dilution.
(§5) Seeds of the test plants are sown in standard soil. After 24 hours, the soil is sprayed with the preparation of active compound such that the particular amount of active compound desired in each case is applied per unit area. The concentration of active compound in the spray liquor is chosen such that the particular amount of active compound desired in each case is applied in 500 litres of water per hectare. The containers with the test plants are kept in a greenhouse at controlled temperature and controlled illumination until evaluation.
(§6) 0%=no effect/no damage (like untreated control)

[2] = test system: Winter barley; assay: Post-emergence test in barley and wheat: winter barley; settings: for damage, Winter barley (21 days): 0.1% Renex-36
Experimental: as §3, §4, §6

[3] = test system: Summer wheat; assay: Post-emergence test in barley and wheat: summer wheat; settings: for damage, Summer wheat (5 days) / damage, Summer wheat (21 days) / damage, Summer wheat (22 days): 0.1% Renex-36
Experimental: as §3, §4, §6

[4] = test system: Durum wheat; assay: Post-emergence test in barley and wheat: durum wheat
Experimental: as §3, §4
(§7) After three weeks, the degree of damage to the plants is rated in % damage in comparison to the development of the untreated control. The figures denote
as §6

[5] = test system: Winter wheat; assay: Post-emergence test in barley and wheat: winter wheat
Experimental: as §3, §4, §7, §6

[6] = test system: weeds; assay: Pre-emergence test (herbicidal action against weeds, Colby)
Description: (§8) The expected action for a given combination of two herbicides can be calculated as follows (cf. COLBY, S. R.: “Calculating synergistic and antagonistic responses of herbicide combinations”, Weeds 15, Pages 20-22, 1967):
(§9) If the actual damage exceeds the calculated value, the combination has a superadditive effect, that is to say a synergistic effect.
The theoretically expected activity for a given combination of three herbicides can likewise be found in the literature mentioned above.
as §1, §2, §3, §4, §5, §7, §6

[7] = test system: Alopecurus; assay: Pre-emergence test (herbicidal action, Colby): Alopecurus
[8] = test system: Cyperus; assay: Pre-emergence test (herbicidal action, Colby): Cyperus
[9] = test system: Digitaria; assay: Pre-emergence test (herbicidal action, Colby): Digitaria
[10] = test system: Echinochloa; assay: Pre-emergence test (herbicidal action, Colby): Echinochloa; settings: 250 g of a.i./ha
[11] = test system: Setaria; assay: Pre-emergence test (herbicidal action, Colby): Setaria; settings: 250 g of a.i./ha
[12] = test system: Abutilon; assay: Pre-emergence test (herbicidal action, Colby): Abutilon
[13] = test system: Matricaria; assay: Pre-emergence test (herbicidal action, Colby): Matricaria
[14] = test system: Polygonum; assay: Pre-emergence test (herbicidal action, Colby): Polygonum
[15] = test system: Stellaria; assay: Pre-emergence test (herbicidal action, Colby): Stellaria
[16] = test system: Galium; assay: Post-emergence test (herbicidal action, Colby): Galium; settings: 125 g of a.i./ha
[17] = test system: Veronica; assay: Post-emergence test (herbicidal action, Colby): Veronica; settings: single active compound at 8 g of a.i./ha
Description: as §8, §9, §3, §4, §7, §6

[18] = test system: Solanum; assay: Post-emergence test (herbicidal action, Colby): Solanum; settings: single active compound at 15 g of a.i./ha
Description: as §8, §9, §3, §4, §7, §6

[19] = test system: Datura; assay: Pre-emergence test (herbicidal action, Colby): Datura
[20] = test system: Ipomoea; assay: Pre-emergence test (herbicidal action, Colby): Ipomoea; settings: 60 g of a.i./ha

## CCS(=O)(=O)N(C(=O)c1cccs1)c1cc(-n2c(=O)cc(C(F)(F)F)n(N)c2=O)c(F)cc1C#N [I-5, N-[5-(3-amino-2,6-dioxo-4-trifluoromethyl-3,6-dihydro-1(2H)-pyrimidinyl)-2-cyano-4-fluoro-phenyl]-N-(2-thienyl-carbonyl)-1-ethanesulphonamide]
[1]; Table A32, 60 g of a.i./ha
  Maize (7 days): 20%
  Maize (12 days): 30%
  Maize (21 days): 18%
[1]; Table A32, 90 g of a.i./ha
  Maize (7 days): 60%
  Maize (12 days): 70%
  Maize (21 days): 64%

## CCS(=O)(=O)Nc1cc(-n2c(=O)cc(C(F)(F)F)n(C)c2=O)c(F)cc1C(N)=S [I-6, 2-(ethylsulphonylamino)-5-fluoro-4-[3-methyl-2,6-dioxo-4-trifluoromethyl-3,6-dihydro-1(2H)-pyrimidinyl]-benzenecarbothioamide]
[1]; Table A30, 60 g of a.i./ha
  Maize (7 days): 30%
[1]; Table A30, 90 g of a.i./ha
  Maize (7 days): 60%
  Maize (12 days): 60%
  Maize (21 days): 30%
[2]; 4 g of a.i./ha
  Winter barley (5 days): 30%
  Winter barley (21 days): 50%
  Winter barley (22 days): 10%
[2]; 8 g of a.i./ha
  Winter barley (5 days): 40%
  Winter barley (21 days): 50%
  Winter barley (22 days): 20%
[2]; 15 g of a.i./ha
  Winter barley (5 days): 60% and 50%
  damage, Winter barley (21 days): 20%
[2]; 30 g of a.i./ha
  Winter barley (5 days): 50%
  Winter barley (21 days): 20%
  damage, Winter barley (21 days): 30%
[3]; 15 g of a.i./ha
  Summer wheat (5 days): 40%
  Summer wheat (21 days): 30%
  damage, Summer wheat (5 days): 50%
  damage, Summer wheat (21 days): 20%
  damage, Summer wheat (22 days): 20%
[3]; 30 g of a.i./ha
  Summer wheat (5 days): 50%
  Summer wheat (21 days): 40%
  damage, Summer wheat (5 days): 60%
  damage, Summer wheat (21 days): 30%
  damage, Summer wheat (22 days): 30%
[4]; 15 g of a.i./ha
  Durum wheat (5 days): 20%
  Durum wheat (21 days): 20%
[4]; 15 g of a.i./ha, 0.1% Renex-36
  damage, Durum wheat (5 days): 20%
[4]; 30 g of a.i./ha
  Durum wheat (5 days): 30%
  Durum wheat (21 days): 20%
[4]; 30 g of a.i./ha, 0.1% Renex-36
  damage, Durum wheat (5 days): 30%
[4]; 30 g of a.i./ha, 22 days, 0.1% Renex-36
  damage, Durum wheat (22 days): 20%
[5]; 4 g of a.i./ha
  Winter wheat (5 days): 20%
  Winter wheat (20 days): 10%
  Winter wheat (22 days): 20%
[5]; 8 g of a.i./ha
  Winter wheat (5 days): 30%
  Winter wheat (20 days): 10%
  Winter wheat (22 days): 20%
[5]; 15 g of a.i./ha
  Winter wheat (5 days): 30%
  Winter wheat (20 days): 20%
[5]; 15 g of a.i./ha, 21 days, 0.1% Renex-36
  damage, Winter wheat (21 days): 10%

## CCOCN(C(=O)CCl)c1c(C)cccc1CC [acetochlor, 2-chloro-N-(ethoxymethyl)-N-(2-ethyl-6-methyl-phenyl)-acetamide]
[6]; Table A20, 125 g of a.i./ha
  Chenopodium (pre-emergence test): 30
  Datura (pre-emergence test): 30
  Galium (pre-emergence test): 0
  Ipomoea (pre-emergence test): 0
[6]; Table A20, 250 g of a.i./ha
  Datura (pre-emergence test): 50
  Galium (pre-emergence test): 20
  Ipomoea (pre-emergence test): 20
  Lolium (pre-emergence test): 90
[7]; 125 g of a.i./ha
  Alopecurus: 30%
[8]; 125 g of a.i./ha
  Cyperus: 60%
[8]; 250 g of a.i./ha
  Cyperus: 60%
[9]; 125 g of a.i./ha
  Digitaria: 80%
[10]
  Echinochloa: 80%
[11]
  Setaria: 80%
[12]; 125 g of a.i./ha
  pest or weed control at 125 g/ha: 0%
[12]; 250 g of a.i./ha
  pest or weed control at 250 g/ha: 40%
[13]; 125 g of a.i./ha
  Matricaria: 90%
[14]; 125 g of a.i./ha
  Polygonum: 30%
[14]; 250 g of a.i./ha
  Polygonum: 30%
[15]; 125 g of a.i./ha
  Stellaria: 80%

## CCNc1nc(Cl)nc(NC(C)C)n1 [atrazine, 6-chloro-4-ethylamino-2-isopropylamino-1,3,5-triazine]
[6]; Table A25, 500 g of a.i./ha
  Avena (pre-emergence test): 80
  Bromus (pre-emergence test): 70
  Cyperus (pre-emergence test): 50
  Lolium (pre-emergence test): 90

## COc1cc(OC)nc(NC(=O)NS(=O)(=O)c2cc(NC=O)ccc2C(=O)N(C)C)n1 [foramsulfuron, 2-[[[[(4,6-dimethoxy-2-pyrimidinyl)-amino]-carbonyl]-amino]-sulphonyl]-4-formylamino-N,N-dimethyl-benzamide]
[6]; Table A27, 15 g of a.i./ha
  Cassia (pre-emergence test): 50
[6]; Table A27, 30 g of a.i./ha
  Abutilon (pre-emergence test): 50
  Polygonum (pre-emergence test): 40

## CC(C)N.O=C(O)CNCP(=O)(O)O [glyphosate-isopropylammonium, N-phosphonomethyl-glycine (isopropylammonium salt)]
[16]
  Galium: 0%

## COCc1cnc(C2=NC(C)(C(C)C)C(=O)N2)c(C(=O)O)c1 (stereo not drawn) [imazamox, 2-(4,5-dihydro-4-methyl-4-isopropyl-5-oxo-1H-imidazol-2-yl)-5-methoxymethyl-pyridine-3-carboxylic acid]
[17]
  damage, Veronica: 0%
[18]
  damage, Solanum: 0%

## CS(=O)(=O)c1cc(C(F)(F)F)ccc1C(=O)c1cnoc1C1CC1 [isoxaflutole, (5-cyclopropyl-isoxazol-4-yl)-(2-methylsulphonyl-4-trifluoromethyl-phenyl)-methanone]
[6]; Table A26, 30 g of a.i./ha
  Avena (pre-emergence test): 30
  Cassia (pre-emergence test): 70
  Digitaria (pre-emergence test): 80
  Echinochloa (pre-emergence test): 30
  Lolium (pre-emergence test): 30
  Matricaria (pre-emergence test): 20
  Setaria (pre-emergence test): 30
[6]; Table A26, 60 g of a.i./ha
  Echinochloa (pre-emergence test): 40
  Lolium (pre-emergence test): 50
  Matricaria (pre-emergence test): 40
  Setaria (pre-emergence test): 30
[7]; 60 g of a.i./ha
  Alopecurus: 40%
[9]; 30 g of a.i./ha
  Digitaria: 90%
[12]; 30 g of a.i./ha, read-out: Abutilon
  pest or weed control at 30 g/ha: 80%
[14]; 30 g of a.i./ha
  Polygonum: 0%
[19]; 60 g of a.i./ha
  Datura: 90%

## CS(=O)(=O)c1ccc(C(=O)C2C(=O)CCCC2=O)c(Cl)c1 [sulcotrione, 2-(2-chloro-4-methylsulphonyl-benzoyl)-cyclohexane-1,3-dione]
[8]; 30 g of a.i./ha
  Cyperus: 90%
[12]; Abutilon, read-out: Abutilon
  pest or weed control at 30 g/ha: 70%
  pest or weed control at 60 g/ha: 80%
[13]; 30 g of a.i./ha
  Matricaria: 40%
[15]; 60 g of a.i./ha
  Stellaria: 80%
[20]
  Ipomoea: 80%
[19]; 30 g of a.i./ha
  Datura: 50%

## CCCN(CCC)c1c([N+](=O)[O-])cc(C(F)(F)F)cc1[N+](=O)[O-] [trifluralin, 1-amino-2,6-dinitro-N,N-di-propyl-4-trifluoromethyl-benzene]
[6]; Table A24, 250 g of a.i./ha
  Cassia (pre-emergence test): 80
  Lolium (pre-emergence test): 95
  Setaria (pre-emergence test): 95
[6]; Table A24, 500 g of a.i./ha
  Echinochloa (pre-emergence test): 95
  Veronica (pre-emergence test): 95
